{
  "source": "patent US10278957B2",
  "about": "“Opioid agonist peptides and uses thereof” (Protagonist Therapeutics, Inc., priority 2017, dated 2019)",
  "key": {"[1]": {"tested_on": "visceral pain (writhing)", "assay": "Acetic Acid or Acetylcholine Writhing Assay", "type": "in vivo", "settings": "PO", "protocol": "Animals were fasted overnight prior to the start of the assay. Test and control article doses, ranging from 3-50 mg/kg, were administered (PO) followed by an IP injection of acetic acid (1.0%) or acetylcholine (10 mg/kg), and immediately placed in a viewing chamber. […] Writhing (abdominal constriction) was defined as a contraction of the abdominal musculature accompanied by arching of the back and extension of the limbs. Latency to first writhe and total number of writhes were recorded. Test articles included oral eluxadoline and two illustrative opioid peptides disclosed herein, Peptide A and Peptide D; and control articles included loperamide and morphine"}, "[2]": {"assay": "SIF assay (stability in simulated intestinal fluid)", "type": "in vitro ADME", "settings": "for half-life at 20 μM: simulated intestinal fluid (SIF) with pancreatin, simulated intestinal fluid, pH 6.8, pancreatin, 37° C.", "protocol": "SIF was prepared by adding 6.8 g of monobasic potassium phosphate and 10.0 g of pancreatin to 1.0 L of water. After dissolution, the pH was adjusted to 6.8 using NaOH. DMSO stocks (2 mM) were prepared for each of the opioid agonist peptides. Aliquots of the DMSO solutions were dosed into […], each containing 0.5 mL of SIF, which was pre-warmed to 37° C. The final opioid agonist peptide concentration was 20 μM. The vials were kept in a benchtop Thermomixer® for the duration of the experiment. At each timepoint (0, 5, 10, 20, 40, 60, or 360 minutes or 24 hours), 1.0 mL of acetonitrile containing 1% formic acid was added to one vial to terminate the reaction. Samples were stored at 4° C. until the end of the experiment. After the final timepoint was sampled, the tubes were mixed and then centrifuged at 3,000 rpm for 10 minutes. Aliquots of the supernatant were removed, diluted 1:1 into distilled water containing an internal standard, and analyzed by LCMS/MS. The percent of the opioid agonist peptide remaining at each timepoint was calculated based on the peak area response ratio of opioid agonist peptide to the internal standard. Time 0 was set to 100%, and all later timepoints were calculated relative to time 0. Half-lives were calculated by fitting to a first-order exponential decay equation using Graph pad."}, "[3]": {"tested_on": "gastro intestinal motility", "assay": "Gastro Intestinal Motility Charcoal Transit Assay", "type": "in vivo", "protocol": "Animals were treated with 0.2 mL croton oil 96 and 72 hours before the gastro intestinal transit (GIT) assay. Animals were fasted overnight prior to charcoal meal dosing. Test and control articles were administered (PO, IP) followed by an oral dose of aqueous suspension of 5% charcoal in 10% gum arabic. […] Charcoal meal test were given 30 min post-test article dose. Twenty minutes after administration of the charcoal test meal, animals were euthanized via CO2 inhalation followed by cervical dislocation, and the small and large intestines were examined to evaluate GI transit and motility. GI transit is expressed as a percentage of the distance traveled by the charcoal test meal divided by the length of the intestine."}, "[4]": {"assay": "SGF assay (stability in simulated gastric fluid)", "type": "in vitro ADME", "settings": "pig, simulated gastric fluid (SGF) with porcine pepsin, pH 2, pepsin, 37° C.", "protocol": "SGF was prepared by adding 20 mg NaCl, 32 mg porcine pepsin (MP Biochemicals, catalog 02102599), and 70 μl HCl to 10 ml water (final pH=2). Aliquots of SGF (0.5 ml each) were pre-warmed at 37° C. To start the reaction, 1 μl of opioid agonist peptide stock solution (10 mM in DMSO) was added to 0.5 ml SGF and thoroughly mixed such that the final peptide concentration was 20 μM. The reactions were incubated at 37° C. with gentle shaking.\nAt each timepoint (0, 15, 30, 60 min) 50 µl aliquots were removed and added to 200 ul of acetonitrile containing 0.1% formic acid to quench the reaction. Samples were stored at 4° C. until the end of the experiment and centrifuged at 10,000 rpm for 5 minutes. Aliquots of the supernatant were removed, diluted 1:1 into distilled water containing internal standard, and analyzed by LCMS/MS. The percent of the opioid agonist peptide remaining at each timepoint was calculated based on the peak area response ratio of the opioid agonist peptide to the internal standard. Time 0 was set to 100%, and all later timepoints were calculated relative to time 0. Half-lives were calculated by fitting to a first-order exponential decay equation using GraphPad."}, "[5]": {"assay": "Plasma assay (stability in mouse plasma)", "type": "in vitro ADME", "settings": "37° C.", "protocol": "Peptides of interest (20 uM) were incubated with pre-warmed mouse plasma (BioreclamationIVT) at 37° C. Aliquots were taken at various time points up to 24 hours (e.g. 0, 0.25, 1, 3, 6 and 24 hr), and immediately quenched with 4 volumes of organic solvent (acetonitrile/methanol (1:1) and 0.1% formic acid, containing 1 μM internal standard). Quenched samples were stored at 4° C. until the end of the experiment and centrifuged at 17,000 g for 15 minutes. The supernatant was diluted 1:1 with deionized water and analyzed using LC-MS. Percentage remaining at each time point was calculated based on the peak area ratio (analyte over internal standard) relative to the initial level at time zero. Half-lives were calculated by fitting to a first-order exponential decay equation using Graph Pad Prism."}, "[6]": {"target": "T1, δ-opioid receptor (DOR) (Homo sapiens, UniProt P41143)", "T1 construct": "host or cells: cAMP Hunter CHO-K1 OPRD1 Gαi cell line", "T1 sequence (P41143 whole entry)": "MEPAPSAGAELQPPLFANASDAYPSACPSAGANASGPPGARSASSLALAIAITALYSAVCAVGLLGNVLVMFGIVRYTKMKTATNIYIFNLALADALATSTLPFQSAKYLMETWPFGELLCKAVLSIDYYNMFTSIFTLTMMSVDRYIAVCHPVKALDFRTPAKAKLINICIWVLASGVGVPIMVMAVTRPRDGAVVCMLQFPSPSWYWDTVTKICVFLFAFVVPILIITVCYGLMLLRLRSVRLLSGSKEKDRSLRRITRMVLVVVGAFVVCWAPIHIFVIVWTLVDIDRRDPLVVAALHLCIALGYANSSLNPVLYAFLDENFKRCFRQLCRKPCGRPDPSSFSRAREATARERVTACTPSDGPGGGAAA", "assay": "DOR agonist cAMP assay (HitHunter cAMP, forskolin-stimulated)", "type": "cell-based", "summary_of_the_method": "(§1)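 CHO-K1 Gαi cells expressing OPRM1 or OPRD1 were exposed 30 min at 37° C to 11-point threefold agonist dilutions, in duplicate, with 20 uM forskolin final. cAMP quantified by EFC chemiluminescent competitive immunoassay against cAMP standards. EC50 by four-parameter Hill nonlinear regression.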"}, "[7]": {"target": "T2, μ-opioid receptor (MOR) (Homo sapiens, UniProt P35372)", "T2 construct": "host or cells: cAMP Hunter CHO-K1 OPRM1 Gαi cell line", "T2 sequence (P35372 whole entry)": "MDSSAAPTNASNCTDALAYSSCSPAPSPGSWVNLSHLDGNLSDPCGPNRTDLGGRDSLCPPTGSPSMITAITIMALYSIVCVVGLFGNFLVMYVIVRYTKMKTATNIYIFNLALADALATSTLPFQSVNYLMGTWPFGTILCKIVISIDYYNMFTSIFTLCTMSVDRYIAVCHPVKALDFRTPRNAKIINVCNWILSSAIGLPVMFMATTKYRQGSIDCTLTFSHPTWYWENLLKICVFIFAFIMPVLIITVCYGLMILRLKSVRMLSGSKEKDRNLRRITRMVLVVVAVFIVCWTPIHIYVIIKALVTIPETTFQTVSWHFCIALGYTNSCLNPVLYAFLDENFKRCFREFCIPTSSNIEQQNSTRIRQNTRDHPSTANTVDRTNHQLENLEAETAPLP", "assay": "MOR agonist cAMP assay (HitHunter cAMP, forskolin-stimulated)", "type": "cell-based", "summary_of_the_method": "as §1"}},
  "data": [
    {"smiles": "Cc1cc(O)cc(C)c1C[C@H](N)C(=O)N[C@H](C)C(=O)NCC(=O)N[C@H](CC(=O)N(C)CC(N)=O)Cc1ccccc1", "note": "[Seq. ID 43, H-DMT-a-G-bhF-Sar-NH2]", "values": [
      {"measurement": "effect on pain (writhing study)", "setting": "[1]; FIGS. 3A and 3B", "value": "positive effect"},
      {"measurement": "visceral pain (writhing study)", "setting": "[1]; at 30 mg/kg and 10 mg/kg, FIGS. 2A and 2B", "value": "significantly reduced visceral pain"},
      {"measurement": "SIF (min)", "setting": "[2]; Table 4, SIF half-life", "value": "**** (for SIF half-life values, **** indicates >1290)"},
      {"measurement": "% inhibition of GI motility", "setting": "[3]; Table 4, orally dosed, charcoal transit", "value": "** (** indicates between 50% and 100%)"},
      {"measurement": "inhibition of small intestine motility as compared to eluxadoline", "setting": "[3]; orally administered, all doses tested, FIG. 1A", "value": "slightly greater inhibition of small intestine motility"},
      {"measurement": "inhibition of GI transit as compared to eluxadoline", "setting": "[3]; orally administered, all doses tested, FIGS. 1B and 1C", "value": "greater inhibition of GI transit"}
    ]},
    {"smiles": "CCCC[C@H](NC(=O)[C@H](Cc1ccccc1)NC(=O)CNC(=O)[C@@H](C)NC(=O)[C@@H](N)Cc1c(C)cc(O)cc1C)C(N)=O", "note": "[compound 37]", "values": [
      {"measurement": "half-life at 20 μM", "setting": "[4]", "value": "0.167 to 6", "unit": "h"},
      {"measurement": "half-life at 20 μM", "setting": "[2]", "value": "≤ 0.167", "unit": "h"},
      {"measurement": "half-life at 20 uM", "setting": "[5]", "value": "6 to 24", "unit": "h"}
    ]},
    {"smiles": "Cc1cc(O)cc(C)c1C[C@H](N)C(=O)N[C@H](C)C(=O)NCC(=O)N[C@H](CC(=O)N(C)CC(N)=O)Cc1ccccc1", "note": "[compound 43]", "values": [
      {"measurement": "half-life at 20 μM", "setting": "[4]", "value": "> 24", "unit": "h"},
      {"measurement": "EC50", "setting": "[6]", "value": "< 1", "unit": "nM"},
      {"measurement": "half-life at 20 μM", "setting": "[2]", "value": "6 to 24", "unit": "h"},
      {"measurement": "half-life at 20 uM", "setting": "[5]", "value": "6 to 24", "unit": "h"}
    ]},
    {"smiles": "Cc1cc(O)cc(C)c1C[C@H](N)C(=O)N[C@H](CC(=O)O)C(=O)NCC(=O)N[C@H](CC(=O)N(C)CC(N)=O)Cc1ccccc1", "note": "[compound 83]", "values": [
      {"measurement": "EC50", "setting": "[7]", "value": "< 1", "unit": "nM"},
      {"measurement": "half-life at 20 μM", "setting": "[4]", "value": "> 24", "unit": "h"},
      {"measurement": "EC50", "setting": "[6]", "value": "< 1", "unit": "nM"},
      {"measurement": "half-life at 20 μM", "setting": "[2]", "value": "> 24", "unit": "h"},
      {"measurement": "half-life at 20 uM", "setting": "[5]", "value": "> 24", "unit": "h"}
    ]}
  ]
}
